The values that follow come from PubChem BioAssay (NCI).

Some test systems named below: NCI/ADR-RES ovarian; OVCAR-5 ovarian; HCT-116 colon; HOP-62 NSCLC; TK-10 renal; A549 NSCLC; RPMI-8226 leukemia; EKVX NSCLC; OVCAR-8 ovarian; LOX IMVI melanoma.
Holding throughout (assay): NCI tumour cell line growth inhibition, 48 h

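Cells were grown in 96-well plates and exposed to each compound for 48 hours at five concentrations; endpoints were interpolated linearly between bracketing concentrations, or set to the highest concentration if not reached. GI50: concentration for 50% inhibition of growth. At the TGI there is no net growth.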

For `COc1cc(C2CC(c3cccc(Nc4ccncc4)c3)=NN2c2cc(Cl)cc(Cl)c2)cc(OC)c1OC` (stereo unspecified), in the assay on NCI/ADR-RES ovarian, the GI50 was 1.84 µM and the TGI is 3.53 µM.

For the compound `COc1cc2cc(Oc3ccc(NC(=O)Nc4ccc(F)c(C(F)(F)F)c4)cc3)c(C)nc2cc1OCCN1CCCCC1`, in the assay on OVCAR-5 ovarian, the GI50 was 1.72 µM and the TGI worked out at 3.1 µM.

`CCOC(=O)c1ncoc1[C@H]1COC(C)(C)O1`: the TGI in the assay on HCT-116 colon, with HOP-62 NSCLC, in the assay on TK-10 renal, in the assay with A549 NSCLC, in the assay on RPMI-8226 leukemia and with EKVX NSCLC was over 100 µM throughout. Also, the TGI in the assay on OVCAR-5 ovarian, in the assay on OVCAR-8 ovarian and with LOX IMVI melanoma was over 100 µM in each case.

With `O=C(c1ccccc1)c1nn(-c2ccc(Cl)cc2)c2nc3nc(-c4ccccc4)cc(=O)n3nc12`, the GI50 in the assay with HCT-116 colon was 19.9 µM; in the assay on HOP-62 NSCLC, 32.3 µM; in the assay on TK-10 renal, 31.8 µM; in the assay on A549 NSCLC, 66.3 µM; in the assay on RPMI-8226 leukemia, 28.8 µM; with NCI/ADR-RES ovarian, 35.5 µM. The GI50 is 30.3 µM with EKVX NSCLC, 48.3 µM with OVCAR-8 ovarian and 28.1 µM in the assay on LOX IMVI melanoma. Moreover, the TGI with HCT-116 colon was 52.2 µM; in the assay on HOP-62 NSCLC, over 100 µM; in the assay on TK-10 renal, 85.6 µM; in the assay on A549 NSCLC, over 100 µM; with RPMI-8226 leukemia, over 100 µM; in the assay with NCI/ADR-RES ovarian, over 100 µM. For the same compound, the TGI with EKVX NSCLC, in the assay with OVCAR-8 ovarian and in the assay on LOX IMVI melanoma was over 100 µM throughout.
